# Measured values from patent US20220220448A1, “INDUCED HUMAN COLITIC ORGANOIDS” (The Cleveland Clinic Foundation, priority 2019, published 2022).
# How the values were obtained:
# [1] = test system: UC epithelial barrier (iHUCOs); experiment: Epithelial barrier permeability by microinjection of 4 kD dextran, real-time, iHUCOs; assay type: cell-based, human; details: 4 kDa dextran, 15 hours, treated vs untreated
# Source text: (§1) FIGS. 6A-U: Repertaxin attenuates the progression of the colitic phenotype in iHUCOs in vitro. (A, B) Representative immunofluorescence co-localization expression of CXCR1 (red) and CXCL8 (green) expressed in epithelium and mesenchyme of iHNO and iHUCO in the absence (A) or presence of repertaxin (B). (C, D) Summarized percentages of cells positive for CXCR1, CXCL8 and both, in the epithelium and mesenchyme of non-IBD and UC iHCOs, after treatment with repertaxin (20 μm) compared to vehicle (Ctrl). (E) Representative H&E of non-IBD and UC organoids in Ctrl compared to repertaxin treated (F). (G, H) Organoid mean diameter and epithelial thickness after 21 days of treatment with repertaxin compared to control. […] (S, T) Quantification of the percentage of the cells in control vs. repertaxin-treated organoids, positive for RhoA in plasma membrane-only (Mem) and cytoplasm (Cyt). […] IHC Scale bar, 40 um. IF Scale bar, 25 um. N=3 each; except for barrier studies, N=1. ns: not significant, **(p<0.01), ***(p<0.001), ****(p<0.0001). Moreover, to functionally confirm the adherens vs. tight junction signature in UC compared to non-IBD organoids, we used the recently described microinjection technique by Hill et al. to measure and compare the epithelial barrier permeability for both UC and non-IBD organoids in real-time. […]
# iHNOs = experiment: Repertaxin in vivo: non-IBD spheroids in TS-HA hydrogel beads implanted subcutaneously in NSG mice
# Source text: (§2) FIGS. 7A-U: Repertaxin attenuates the progression of the colitic phenotype in iHUCOs in vivo. (A) Schematic representation of repertaxin study in vivo; spheroids encapsulated in TS-HA hydrogel beads were implanted subcutaneously in the dorsal flanks of immunocompromised NSG mice receiving daily injections of repertaxin vs. PBS (21 days). (B, C) Representative immunofluorescence dual-staining of CXCR1 (red) and CXCL8 (green) expressed in epithelium and mesenchyme of iHNO and iHUCO in Ctrl (B) or repertaxin-treated (C). (D, E) Summarized percentages of cells positive for CXCR1, CXCL8 and both, in the epithelium and mesenchyme of non-IBD and UC organoids, after treatment with repertaxin (20 mg/kg) compared to PBS (Ctrl). (F-G) Representative H&E of non-IBD and UC organoids harvested after 21 days for control (F) and repertaxin treatment (G). (H, I) Mean organoid diameter and epithelial thickness after 21 days of repertaxin treatment vs. Ctrl. […] Results reported for the plasma membrane only (Mem), and cytoplasm+nucleus (Cyt+Nuc) cellular compartments. (R, S) Representative immunohistochemistry of RhoA, highlighting the effect of repertaxin on the cellular localization of the protein in plasma membrane only (Mem), and cytoplasm (Cyt) compartments. (T, U) Summarized percentages of cells expressing RhoA in Ctrl vs. repertaxin-treated organoids for plasma membrane-only (Mem) and cytoplasm (Cyt). IHC Scale bar, 40 um. IF Scale bar, 25 um. N=3 each. ns=not significant, *(p<0.05), **(p<0.01), ***(p<0.001), ****(p<0.0001). […] To test the significance of our repertaxin observations in vivo, we studied the effect of repertaxin on the developmental progression of spheroids to organoids, implanted subcutaneously in the dorsal flank of NSG mice (FIG. 7A, STAR Methods). In brief, we encapsulated the spheroids in TS-HA hydrogel beads and implanted the beads subcutaneously. Mice were then treated daily for 21 days with either 20 mg/kg repertaxin or PBS (control). The rate of growth was measured twice per week with calipers, and the volume calculated (STAR Methods).
# iHUCOs = experiment: Repertaxin in vivo: UC spheroids in TS-HA hydrogel beads implanted subcutaneously in NSG mice
# Source text: as §2
# [2] = test system: iHNOs (non-IBD organoids); experiment: Repertaxin treatment of iHNOs in vitro during development from spheroids to organoids (IF, IHC, H&E); assay type: cell-based, human
# Source text: (§3) FIGS. 6A-U: Repertaxin attenuates the progression of the colitic phenotype in iHUCOs in vitro. (A, B) Representative immunofluorescence co-localization expression of CXCR1 (red) and CXCL8 (green) expressed in epithelium and mesenchyme of iHNO and iHUCO in the absence (A) or presence of repertaxin (B). (C, D) Summarized percentages of cells positive for CXCR1, CXCL8 and both, in the epithelium and mesenchyme of non-IBD and UC iHCOs, after treatment with repertaxin (20 μm) compared to vehicle (Ctrl). (E) Representative H&E of non-IBD and UC organoids in Ctrl compared to repertaxin treated (F). (G, H) Organoid mean diameter and epithelial thickness after 21 days of treatment with repertaxin compared to control. […] (S, T) Quantification of the percentage of the cells in control vs. repertaxin-treated organoids, positive for RhoA in plasma membrane-only (Mem) and cytoplasm (Cyt). […] IHC Scale bar, 40 um. IF Scale bar, 25 um. N=3 each; except for barrier studies, N=1. ns: not significant, **(p<0.01), ***(p<0.001), ****(p<0.0001). The upregulation of the CXCL8 receptor pro-inflammatory interaction in iHUCOs (FIG. 5) led us to study the effect of repertaxin, a small molecule inhibitor of the CXCL8 receptor, on organoids development. In brief, we treated both UC and non-IBD organoids with repertaxin for 21 days, during their development from spheroids to organoids and compared their phenotypic characteristics to vehicle (Ctrl) organoids.
# [3] = test system: epithelial barrier of non-IBD organoids (iHNOs); experiment: Epithelial barrier permeability by microinjection of 4 kD dextran, real-time, iHNOs; assay type: cell-based, human; details: 4 kDa dextran, 15 hours, treated vs untreated
# Source text: as §1
# iHUCOs (UC organoids) = experiment: Repertaxin treatment of iHUCOs in vitro during development from spheroids to organoids (IF, IHC, H&E, in situ hybridization); assay type: cell-based, human
# Source text: as §3
# [4] = non-IBD organoids, 20 mg/kg daily, 21 days, vs PBS
# [5] = UC organoids, 20 mg/kg daily, 21 days, vs PBS
# [6] = iHUCOs, 20 mg/kg daily, 21 days, vs PBS
# [7] = iHUCOs, IHC, vs untreated control
# [8] = iHNOs, IHC, repertaxin vs control
# [9] = non-IBD organoids, 21 days repertaxin vs control
# [10] = non-IBD organoids, IHC, repertaxin vs control
# [11] = non-IBD organoids, repertaxin (20 μm), 21 days, vs control
# [12] = UC organoids, IHC, repertaxin vs control
# [13] = iHUCOs epithelium, IHC, repertaxin vs control
# [14] = iHUCOs, 21 days repertaxin vs control
# [15] = iHUCOs, repertaxin (20 μm), 21 days, vs control
# [16] = iHUCOs, repertaxin (20 μm), 21 days, vs vehicle (Ctrl), average
structure (smiles),measurement,setting,value
CC(C)Cc1ccc([C@@H](C)C(=O)NS(C)(=O)=O)cc1 [repertaxin],rate of permeability of the epithelial barrier (dye release),[1],significantly decreased
same,real-time measurement timepoints with significantly decreased permeability,[1],50%
same,epithelial thickness,"iHNOs; iHNOs, 20 mg/kg daily, 21 days, vs PBS",no significant effect
same,E-cadherin expression pattern,"iHNOs; iHNOs, IHC, vs control",higher rate of expression in membrane
same,RhoA expression,"iHNOs; iHNOs, IHC, vs control",did not have a significant effect
same,β-catenin expression pattern,"iHNOs; iHNOs, IHC, vs control",higher rate of expression in membrane
same,Ki67 proliferation rate in the epithelium,"iHNOs; non-IBD epithelium, 20 mg/kg daily, 21 days, vs PBS",did not have a significant effect
same,CXCL8 expression,iHNOs; [4],less
same,CXCR1 expression,iHNOs; [4],less
same,Claudin-1 expression,"iHNOs; non-IBD organoids, IHC, vs control",did not change
same,overall calculated volume of implanted beads,"iHUCOs; 20 mg/kg repertaxin daily for 21 days vs PBS, groups (UC and non-IBD) not told apart",significantly greater in the PBS than in the repertaxin-treated groups
same,CXCL8 expression,iHUCOs; [5],less
same,CXCR1 expression,iHUCOs; [5],less
same,Ki67 proliferation rate in the epithelium,iHUCOs; [6],significantly reduced
same,epithelial thickness,iHUCOs; [6],significant less thick epithelium
same,Claudin-1 expression,"iHUCOs; iHUCOs, IHC, vs control",significantly increased
same,cytoplasmic expression of RhoA,"iHUCOs; iHUCOs, IHC, vs control",strongly decreased
same,membranous expression of RhoA,"iHUCOs; iHUCOs, IHC, vs control",strongly decreased
same,cytoplasmic and nuclear expression of E-cadherin,iHUCOs; [7],greater cytoplasmic and nuclear expression
same,cytoplasmic and nuclear expression of β-catenin,iHUCOs; [7],greater cytoplasmic and nuclear expression
same,Ki67 expression in the epithelium (proliferation),[2]; [8],significantly lower expression
same,RhoA expression,[2]; [8],did not significantly affect
same,Claudin-1 expression,"[2]; iHNOs, IHC, treated vs control",no significant changes
same,epithelial thickness,[2]; [9],did not change
same,organoid size,[2]; [9],significantly smaller organoids
same,cells with expression of E-cadherin limited to the plasma membrane,[2]; [10],significantly more cells with limited expression
same,cells with expression of β-catenin limited to the plasma membrane,[2]; [10],significantly more cells with limited expression
same,cytoplasmic and nuclear expression of E-cadherin,[2]; [10],lower cytoplasmic and nuclear expression
same,cytoplasmic and nuclear expression of β-catenin,[2]; [10],lower cytoplasmic and nuclear expression
same,CXCL8 expression,[2]; [11],significantly less
same,CXCR1 expression,[2]; [11],significantly less
same,epithelial permeability (dye release),[3],did not have a significant effect
same,cytoplasmic and nuclear expression of E-cadherin,iHUCOs (UC organoids); [12],greater
same,cytoplasmic and nuclear expression of β-catenin,iHUCOs (UC organoids); [12],greater
same,RhoA expression in cytoplasm,iHUCOs (UC organoids); [13],less RhoA expression
same,less RhoA expression on the membrane (activated RhoA),iHUCOs (UC organoids); [13],~5 fold
same,epithelial thickness,iHUCOs (UC organoids); [14],less thick epithelium
same,organoid size,iHUCOs (UC organoids); [14],significantly lower size
same,Claudin-1 expression,"iHUCOs (UC organoids); iHUCOs, IHC, repertaxin vs control",significantly more expression
same,CXCL8 expression,iHUCOs (UC organoids); [15],significantly lower than control
same,percentage of co-expression of CXCL8/CXCR1,iHUCOs (UC organoids); [15],significantly lower than control
same,lower expression of CXCR1 in the epithelium,iHUCOs (UC organoids); [16],7 fold
same,lower expression of CXCR1 in the mesenchyme,iHUCOs (UC organoids); [16],9 fold
same,expression pattern of p-YAP1,"iHUCOs (UC organoids); treated iHUCOs, IHC",more closely resembled the expression patterns in iHNOs
same,expression pattern of LGR5,"iHUCOs (UC organoids); treated iHUCOs, in situ hybridization",more closely resembled the expression patterns in iHNOs
